From PubChem BioAssay (NCI)
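Tested at 5 concentrations; 48 h exposure; 96-well plates; endpoints linearly interpolated, else capped at highest concentration. At the TGI there is no net growth.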

Tests used:
Assay in all cases: DTP human tumour cell line panel, 48 h
[1] = test system: UACC-62 melanoma
[2] = test system: EKVX NSCLC
[3] = test system: HT29 colon
[4] = test system: T-47D breast
[5] = test system: MDA-MB-435
[6] = test system: LOX IMVI melanoma
[7] = test system: SF-268 CNS
[8] = test system: M14 melanoma
[9] = test system: RXF 393 renal
[10] = test system: ACHN renal
[11] = test system: CAKI-1 renal
[12] = test system: TK-10 renal
[13] = test system: KM12 colon
[14] = test system: SF-295 CNS
[15] = test system: NCI-H522 lung
[16] = test system: OVCAR-5 ovarian
[17] = test system: HOP-62 NSCLC
[18] = test system: SK-OV-3 ovarian
[19] = test system: PC-3 prostate
[20] = test system: HCT-15 colon
[21] = test system: HL-60(TB) leukemia
[22] = test system: OVCAR-4 ovarian
[23] = test system: COLO 205 colon
[24] = test system: IGROV1 ovarian
[25] = test system: MDA-MB-231 breast
[26] = test system: OVCAR-8 ovarian
[27] = test system: CCRF-CEM leukemia
[28] = test system: MDA-N
[29] = test system: SK-MEL-28 melanoma
[30] = test system: UACC-257 melanoma
[31] = test system: SN12C renal
[32] = test system: HCT-116 colon
[33] = test system: U251 CNS
[34] = test system: SNB-75 CNS
[35] = test system: K-562 leukemia
[36] = test system: NCI-H226 lung
[37] = test system: 786-0 renal
[38] = test system: MCF7 breast
[39] = test system: SF-539 CNS
[40] = test system: HOP-92 NSCLC
[41] = test system: UO-31 renal
[42] = test system: A549 NSCLC
[43] = test system: SK-MEL-2 melanoma
[44] = test system: A498 renal
[45] = test system: SNB-19 CNS
[46] = test system: NCI/ADR-RES ovarian
[47] = test system: HS 578T breast
[48] = test system: SW-620 colon
[49] = test system: NCI-H23 lung
[50] = test system: SK-MEL-5 melanoma
[51] = test system: MOLT-4 leukemia
[52] = test system: DU-145 prostate
[53] = test system: BT-549 breast
[54] = test system: OVCAR-3 ovarian
[55] = test system: NCI-H460 lung
[56] = test system: MALME-3M melanoma
[57] = test system: RPMI-8226 leukemia
[58] = test system: HCC-2998 colon

CCOP(=O)(CN1CCNCCN(CP(=O)(OCC)OCC)CC1)OCC gave a TGI [1] greater than 100 µM, a TGI [2] greater than 100 µM and a TGI [3] greater than 100 µM. It also gave a TGI [4] greater than 100 µM, a TGI [5] greater than 100 µM and a TGI [6] greater than 100 µM. It also gave a TGI [7] greater than 100 µM, a TGI [8] greater than 100 µM and a TGI [9] greater than 100 µM. It also gave a TGI [10] greater than 100 µM, a TGI [11] greater than 100 µM and a TGI [12] greater than 100 µM. It also gave a TGI [13] greater than 100 µM, a TGI [14] greater than 100 µM and a TGI [15] greater than 100 µM. For the same compound, the TGI [16] was greater than 100 µM, the TGI [17] was greater than 100 µM and the TGI [18] was greater than 100 µM. The TGI [19] was greater than 100 µM, the TGI [20] was greater than 100 µM and the TGI [21] was greater than 100 µM. The TGI [22] was greater than 100 µM, the TGI [23] was greater than 100 µM and the TGI [24] was greater than 100 µM. The TGI [25] was greater than 100 µM, the TGI [26] was greater than 100 µM and the TGI [27] was greater than 31.6 µM. It also gave a TGI [28] greater than 100 µM, a TGI [29] greater than 100 µM and a TGI [30] greater than 100 µM. The TGI [31] was greater than 100 µM, the TGI [32] was greater than 100 µM and the TGI [33] was greater than 100 µM. For the same compound, the TGI [34] was greater than 100 µM, the TGI [35] was greater than 100 µM and the TGI [36] was greater than 100 µM. It also gave a TGI [37] greater than 100 µM, a TGI [38] greater than 100 µM and a TGI [39] greater than 100 µM. The TGI [40] was greater than 100 µM, the TGI [41] was greater than 100 µM and the TGI [42] was greater than 100 µM. The TGI [43] was greater than 100 µM, the TGI [44] was greater than 100 µM and the TGI [45] was greater than 100 µM. It also gave a TGI [46] greater than 100 µM, a TGI [47] greater than 100 µM and a TGI [48] greater than 100 µM. The TGI [49] was greater than 100 µM, the TGI [50] was greater than 100 µM and the TGI [51] was greater than 100 µM. The TGI [52] was greater than 100 µM, the TGI [53] was greater than 100 µM and the TGI [54] was greater than 100 µM. The TGI [55] was greater than 100 µM, the TGI [56] was greater than 30.4 µM and the TGI [57] was greater than 100 µM.
Work on CCOC(=O)CO/N=C\C1=CC(=O)C2CC1C2(C)C (stereo unspecified) yielded a TGI [1] greater than 100 µM, a TGI [2] greater than 100 µM and a TGI [3] greater than 100 µM. The TGI [4] was greater than 100 µM, the TGI [5] was greater than 100 µM and the TGI [6] was greater than 100 µM. For the same compound, the TGI [7] was greater than 100 µM, the TGI [8] was greater than 100 µM and the TGI [9] was greater than 100 µM. It also gave a TGI [10] greater than 100 µM, a TGI [11] greater than 100 µM and a TGI [12] greater than 100 µM. For the same compound, the TGI [13] was greater than 100 µM, the TGI [14] was greater than 100 µM and the TGI [16] was greater than 100 µM. It also gave a TGI [19] greater than 100 µM, a TGI [20] greater than 100 µM and a TGI [21] greater than 100 µM. It also gave a TGI [23] greater than 100 µM, a TGI [24] greater than 100 µM and a TGI [25] greater than 100 µM. For the same compound, the TGI [26] was greater than 100 µM, the TGI [27] was greater than 100 µM and the TGI [28] was greater than 100 µM. The TGI [29] was greater than 100 µM, the TGI [30] was greater than 100 µM and the TGI [31] was greater than 100 µM. The TGI [32] was greater than 100 µM, the TGI [33] was greater than 100 µM and the TGI [34] was greater than 100 µM. It also gave a TGI [35] greater than 100 µM, a TGI [36] greater than 100 µM and a TGI [37] greater than 100 µM. The TGI [38] was greater than 100 µM, the TGI [39] was greater than 100 µM and the TGI [41] was greater than 100 µM. For the same compound, the TGI [43] was greater than 100 µM, the TGI [44] was greater than 100 µM and the TGI [45] was greater than 100 µM. For the same compound, the TGI [46] was greater than 100 µM, the TGI [47] was greater than 100 µM and the TGI [48] was greater than 100 µM. The TGI [49] was greater than 100 µM, the TGI [50] was greater than 100 µM and the TGI [51] was greater than 100 µM. The TGI [52] was greater than 100 µM, the TGI [53] was greater than 100 µM and the TGI [54] was greater than 100 µM. It also gave a TGI [56] greater than 100 µM and a TGI [57] greater than 100 µM.
Compound CC(=O)OCCn1c(Cc2ccc(C)cc2)nn(C(C)=O)c1=O has a TGI [1] greater than 100 µM, a TGI [58] greater than 100 µM and a TGI [2] greater than 100 µM. It also gave a TGI [3] greater than 100 µM, a TGI [4] greater than 100 µM and a TGI [5] greater than 100 µM. It also gave a TGI [6] greater than 100 µM, a TGI [7] greater than 100 µM and a TGI [8] greater than 100 µM. It also gave a TGI [10] greater than 100 µM, a TGI [11] greater than 100 µM and a TGI [12] greater than 100 µM. It also gave a TGI [13] greater than 100 µM, a TGI [14] greater than 100 µM and a TGI [15] greater than 100 µM. For the same compound, the TGI [16] was greater than 100 µM, the TGI [18] was greater than 100 µM and the TGI [19] was greater than 100 µM. It also gave a TGI [20] greater than 100 µM, a TGI [21] greater than 100 µM and a TGI [22] greater than 100 µM. For the same compound, the TGI [23] was greater than 100 µM, the TGI [24] was greater than 100 µM and the TGI [25] was greater than 100 µM. The TGI [26] was greater than 100 µM, the TGI [28] was greater than 100 µM and the TGI [29] was greater than 100 µM. It also gave a TGI [30] greater than 100 µM, a TGI [31] greater than 100 µM and a TGI [32] greater than 100 µM. It also gave a TGI [33] greater than 100 µM, a TGI [35] greater than 100 µM and a TGI [36] greater than 100 µM. For the same compound, the TGI [37] was greater than 100 µM, the TGI [38] was greater than 100 µM and the TGI [39] was greater than 100 µM. It also gave a TGI [40] greater than 100 µM, a TGI [41] greater than 100 µM and a TGI [42] greater than 100 µM. For the same compound, the TGI [43] was greater than 100 µM, the TGI [44] was greater than 100 µM and the TGI [45] was greater than 100 µM. For the same compound, the TGI [46] was greater than 100 µM, the TGI [47] was greater than 100 µM and the TGI [48] was greater than 100 µM. The TGI [49] was greater than 100 µM, the TGI [50] was greater than 100 µM and the TGI [51] was greater than 100 µM. For the same compound, the TGI [52] was greater than 100 µM, the TGI [53] was greater than 100 µM and the TGI [54] was greater than 100 µM. It also gave a TGI [55] greater than 100 µM, a TGI [56] greater than 100 µM and a TGI [57] greater than 100 µM.
